According to PMC12131314, “Design, synthesis and cytotoxic research of a novel antitumor model based on acrylamide–PABA analogs via β-tubulin inhibition” (RSC Advances, 2025):

How the values were obtained:
Assay type in all cases: cell-based
[1] = system: MCF-10A (normal breast) cell line; assay: MTT cytotoxicity assay, MCF-10A normal breast cell line; details: Homo sapiens, MCF-10A normal breast cells, triplicate
Method: (§1) S4.2.1. Cytotoxic activity evaluation
(§2) To measure the cytotoxic actvity of the synthesized acrylamide-PABA derivatives 4a-j in breast MCF-7 (ATCC Cat. No. HTB-22), liver HepG2 (ATCC Cat No. HB-8065), and normal breast MCF-10A (ATCC Cat. No. CRL 10317) cell lines, cell viability assay was assessed using MTT assay method. Cells at density of 1 x 104 were seeded in a 96-well plate at 37 °C for 24 h under 5% CO2. After incubation, the cells were treated with different concentrations of the test acrylamide-PABA hybrids 4a-j and incubated for 24 h, then 20 µl of MTT solution at 5 mg/mL was applied and incubated for 4 h at 37 °C. Dimethyl sulphoxide (DMSO) in volume of 100 µl was added to each well to dissolve the purple formazan that had formed. The color intensity of the formazan product, which represents the growth condition of the cells, is quantified by using an ELISA plate reader (EXL 800, USA) at 570 nm absorbance. The experimental conditions were carried out with at least three replicates, and the experiments were repeated at least three times. […]

[2] = system: MCF-7 breast cancer cell line; assay: MTT cytotoxicity assay, MCF-7 breast cancer cell line; details: for IC50: MCF-7 breast carcinoma cells, triplicate
Method: The MTT colorimetric technique was used to evaluate the cytotoxic activity of the newly produced acrylamide–PABA hybrids 4a–j against the MCF-7 breast cancer cell line.
as §1, §2

[3] = system: HepG2 hepatocellular carcinoma cell line; assay: MTT cytotoxicity assay, HepG2 hepatocellular carcinoma cell line; details: Homo sapiens, HepG2 cells, triplicate
Method: as §1, §2

β-tubulin = β-tubulin polymerization inhibition (β-tubulin assay kit) in MCF-7 cells
Method: as §1
To measure the cytotoxic actvity of the synthesized acrylamide-PABA derivatives 4a-j in breast MCF-7 (ATCC Cat. No. HTB-22), liver HepG2 (ATCC Cat No. HB-8065), and normal breast MCF-10A (ATCC Cat. No. CRL 10317) cell lines, cell viability assay was assessed using MTT assay method. Cells at density of 1 x 104 were seeded in a 96-well plate at 37 °C for 24 h under 5% CO2. After incubation, the cells were treated with different concentrations of the test acrylamide-PABA hybrids 4a-j and incubated for 24 h, then 20 µl of MTT solution at 5 mg/mL was applied and incubated for 4 h at 37 °C. Dimethyl sulphoxide (DMSO) in volume of 100 µl was added to each well to dissolve the purple formazan that had formed. The color intensity of the formazan product, which represents the growth condition of the cells, is quantified by using an ELISA plate reader (EXL 800, USA) at 570 nm absorbance. The experimental conditions were carried out with at least three replicates, and the experiments were repeated at least three times.
S4.2.2. β-tubulin inhibition Assay […]
according to manufacturer’s instructions

MCF-7 cells [4] = assay: Annexin V-FITC/PI apoptosis assay by flow cytometry; details: 4j at the IC50, 48 h
Method: Understanding the biological mechanism of action of chemotherapeutic agents is an important aspect of the pharmaceutical development process.[28] […] Following cellular staining with Annexin V –FITC/propidium iodide (PI), FACS analysis was conducted. To differentiate between early and late apoptosis, both stains were used. (PI^−/Annexin V-FITC^+) represented early apoptotic cells, (PI^+/Annexin V-FITC^+) indicated late apoptotic cells, and (PI^+/Annexin V-FITC^−) represented necrotic cells. However, healthy cells were not stained (PI^−/Annexin V-FITC^−). […] This was clarified by compound 4j's modest degree of induced necrosis in contrast to its markedly elevated levels of induced early and late apoptosis. Acrylamide–PABA analog 4j induced both early apoptosis (22.07%) and late apoptosis (7.56%) in comparison with modest level of necrosis (3.19%).
S4.2.3. Apoptosis assay for compound 4j
Apoptosis in MCF-7 cells was investigated using fluorescent Annexin V-FITC/ PI detection kit (BioVision Annexin V-FITC Apoptosis Detection Kit, Catalog #: K101) by flow cytometry assay. MCF-7 cells at a density of 2 × 10^5 per well were treated with compound 4j at the IC50 (µM) for 48 h, then the cells were harvested and stained with Annexin V-FITC/ PI dye for 15 min in the dark at 37 °C. The samples were immediately analyzed using FACS Calibur flow cytometer (Becton and Dickinson, […]
(§3) S4.2.4. qRT-PCR measurements of p53, Bax, Bcl2 and caspase 9 for compound […]
Real-time PCR for p53, BAX, Bcl-2 and caspase 9 genes expression was done using commercial Qiagen RNA extraction/ BioRad SYBER green PCR master mix according manufacturer's instructions. Briefly, 2 µl of cDNA template, 10 pMol of each forward and reverse primer, 10 µl of 2X Master Mix and to 20 µl total reaction mixture volume by nuclease free water and then was introduced to thermal cycler […]
(1 picture or pasted object on this page, not shown here)

p53 = assay: qRT-PCR expression level of p53; details: MCF-7 cells
From the text: (§4) The apoptotic markers related to apoptosis were crucial in preventing cancer.[30] p53 and other apoptotic regulators function as transcription factors that can activate several target genes in response to oncogenic stress, causing cell cycle arrest, apoptosis activation, and degeneration, while also promoting DNA repairs.[31] As a result, the apoptosis-related markers work together in order to ensure that cells with mutations that promote cancer (including broken genomes) are either repaired or permanently eliminated.[32] To further comprehend the molecular process involved in the apoptotic efficacy of the acrylamide–PABA analogs, the expression levels of p53, Bax, Bcl-2 and caspase 9 were evaluated. […] This was carried out in contrast to a negative control group. […] This was accompanied by a notable drop in the level of Bcl-2 (0.29-fold). […]
as §3
(§5) Real-time PCR for p53, BAX, Bcl-2 and caspase 9 genes expression was done using commercial Qiagen RNA extraction/ BioRad SYBER green PCR master mix according manufacturer's instructions. […]
(§6) Relative quantification of target genes was run on Rotor-Gene 6000 Series Software

Bax = assay: qRT-PCR expression level of Bax; details: MCF-7 cells
From the text: as §4, §3, §5, §6

Bcl-2 = assay: qRT-PCR expression level of Bcl-2; details: MCF-7 cells
From the text: as §4, §3, §5, §6

caspase 9 = assay: qRT-PCR expression level of caspase 9; details: MCF-7 cells
From the text: as §4, §3, §5, §6

MCF-7 cells [5] = assay: Cell cycle analysis (PI, flow cytometry); details: 4j at the IC50, 48 h
From the text: In cancer mass development, the disruption of the cell cycle can be an important event. Cellular cycle progression has two primary checkpoints: G1/S before DNA replication and G2/M before mitosis.[33] A p53-responsive gene such as p21^wafi regulates the G1/S checkpoint and mediates cell cycle arrest.[34] Since the cytotoxic activity of the synthesized analogs against MCF-7 cells was induced by the enhanced apoptotic levels, we examined whether these analogs further induced cell cycle arrest. […] As can been seen in Fig. 5, the cellular distribution at each stage is depicted in the histogram of the cellular cycle caused by the acrylamide–PABA hybrid 4j. […]
instrument (Thermo Scientific, USA). The cycling parameters for the PCR amplification were achieved by initial denaturation at 95 °C for 3 minutes followed by 40 cycles of 94 °C for 15 seconds and annealing/extension step at 60 °C for 1 min.
Relative quantification of target genes was run on Rotor-Gene 6000 Series Software […]
Table 1: The primer sequences for Real Time PCR assay
S4.2.5. Cell cycle analysis of compound 4j
Cell cycle analysis in MCF-7 cells was investigated using fluorescent Annexin V-FITC/ PI detection kit (BioVision EZCellTM Cell Cycle Analysis Kit Catalog #K920) by flow cytometry assay. MCF-7 cells at a density of 2 × 10^5 per well were harvested and washed twice in PBS. After that, the cells were incubated at 37 °C and 5% CO2.
The medium was incubated with the tested compound 4j at the IC50 (µM) for 48 h, washed twice in PBS, fixed with 70% ethanol, rinsed again with PBS. Afterward, medium was stained with DNA fluorochrome PI for 15 min at 37 °C. The samples were immediately analyzed using Facs Calibur flow cytometer (Becton and Dickinson, Heidelberg, Germany).
S4.3. Molecular modeling study
Molecular docking simulations were conducted using AutoDock Vina to investigate ligand interactions with the tubulin complex. The three-dimensional (3D) structure of the tubulin heterodimer was obtained from the Protein Data Bank (PDB ID: 1SA0), with chain B of the colchicine-bound complex selected as the docking target. […]

COc1cc(C(=O)N/C(=C\c2ccc(F)cc2)C(=O)NNC(=O)c2ccc(N)cc2)cc(OC)c1OC [4a, (Z)-N-(3-(2-(4-Aminobenzoyl)hydrazineyl)-1-(4-fluorophenyl)-3-oxoprop-1-en-2-yl)-3,4,5-trimethoxybenzamide]
IC50 [1]: 19.8 ± 0.62 µM | IC50 ([2]; Homo sapiens, MCF7, MTT): 2.99 ± 0.1 µM | IC50 [3]: 4.87 ± 0.13 µM | percentage inhibition of β-tubulin polymerization (β-tubulin): 78.19%

COc1cc(C(=O)N/C(=C\c2ccc(Cl)cc2)C(=O)NNC(=O)c2ccc(N)cc2)cc(OC)c1OC [4b, (Z)-N-(3-(2-(4-Aminobenzoyl)hydrazineyl)-1-(4-chlorophenyl)-3-oxoprop-1-en-2-yl)-3,4,5-trimethoxybenzamide]
IC50 ([2]; Homo sapiens, MCF7, MTT): 25.3 ± 0.86 µM

COc1cc(C(=O)N/C(=C\c2ccc([N+](=O)[O-])cc2)C(=O)NNC(=O)c2ccc(N)cc2)cc(OC)c1OC [4c, (Z)-N-(3-(2-(4-Aminobenzoyl)hydrazineyl)-1-(4-nitrophenyl)-3-oxoprop-1-en-2-yl)-3,4,5-trimethoxybenzamide]
IC50 ([2]; Homo sapiens, MCF7, MTT): > 30 µM | IC50 ([2]; MTT): 39.7 ± 1.34 µM

COc1cc(C(=O)N/C(=C\c2ccc(N(C)C)cc2)C(=O)NNC(=O)c2ccc(N)cc2)cc(OC)c1OC [4f, (Z)-N-(3-(2-(4-Aminobenzoyl)hydrazineyl)-1-(4-(dimethylamino)phenyl)-3-oxoprop-1-en-2-yl)-3,4,5-trimethoxybenzamide]
IC50 ([2]; Homo sapiens, MCF7, MTT): 27.2 ± 0.92 µM

COc1ccc(/C=C(\NC(=O)c2cc(OC)c(OC)c(OC)c2)C(=O)NNC(=O)c2ccc(N)cc2)cc1OC [4g, (Z)-N-(3-(2-(4-Aminobenzoyl)hydrazineyl)-1-(3,4-dimethoxyphenyl)-3-oxoprop-1-en-2-yl)-3,4,5-trimethoxybenzamide]
IC50 ([2]; Homo sapiens, MCF7, MTT): 17.1 ± 0.58 µM

COc1cc(C(=O)N/C(=C\c2cc(Br)c(O)c(Br)c2)C(=O)NNC(=O)c2ccc(N)cc2)cc(OC)c1OC [4h, (Z)-N-(3-(2-(4-Aminobenzoyl)hydrazineyl)-1-(3,5-dibromo-4-hydroxyphenyl)3-oxoprop-1-en-2-yl)-3,4,5-trimethoxybenzamide]
IC50 ([2]; Homo sapiens, MCF7, MTT): 19.9 ± 0.67 µM

COc1cc(/C=C(\NC(=O)c2cc(OC)c(OC)c(OC)c2)C(=O)NNC(=O)c2ccc(N)cc2)cc(OC)c1OC [4i, (Z)-N-(3-(2-(4-Aminobenzoyl)hydrazineyl)-3-oxo-1-(3,4,5-trimethoxyphenyl)prop-1-en-2-yl)-3,4,5-trimethoxybenzamide]
IC50 ([2]; Homo sapiens, MCF7, MTT): 4.51 ± 0.15 µM

COc1cc(C(=O)N/C(=C\c2ccco2)C(=O)NNC(=O)c2ccc(N)cc2)cc(OC)c1OC [4j, (Z)-N-(3-(2-(4-Aminobenzoyl)hydrazineyl)-1-(furan-2-yl)-3-oxoprop-1-en-2-yl)-3,4,5-trimethoxybenzamide]
early apoptosis (MCF-7 cells [4]): 22.07% | late apoptosis (MCF-7 cells [4]): 7.56% | necrosis (MCF-7 cells [4]): 3.19% | IC50 [1]: 23.2 ± 1.06 µM | expression level of p53 compared to negative controls (p53): 5.14 fold | IC50 ([2]; Homo sapiens, MCF7, MTT): 1.83 ± 0.06 µM | fold more potent than the reference drug Col (MCF-7 IC50) ([2]; MCF-7 cells, relative to Col): 1.9 fold | IC50 [3]: 2.14 ± 0.09 µM | percentage inhibition of β-tubulin polymerization (β-tubulin): 81.51% | expression level of Bax compared to negative controls (Bax): 8.36 fold | level of Bcl-2 compared to negative controls (Bcl-2): 0.29 fold | expression level of caspase 9 compared to negative controls (caspase 9): 9.89 fold | cell population at S phase (MCF-7 cells [5]; negative control 29.51%): 18.83% | cell population at G1 phase (MCF-7 cells [5]; negative control 61.08%): 46.99% | cell population at G2/M phase (MCF-7 cells [5]; untreated control 9.41%): 34.18%
